Source: patent US5824533A, “Orpinomyces xylanase proteins and coding sequences” (University of Georgia Research Foundation, Inc., priority 1995, dated 1998)
Several values for one entry are separate records, joined by “and”; a condition that tells them apart may be missing. Identical values can stand only once. Entries after “also recorded” stand apart in the source; their conditions may differ.

System: Orpinomyces sp. strain PC-2 endoxylanase XynA-1 (purified native enzyme, 29 kDa)
Assay: Effect of reagents on purified endoxylanase activity (residual activity on oat spelt xylan)
Type: biochemical
Protocol: Enzyme assays: All enzyme assays were carried out in duplicate and in 50 mM piperazine/HCl buffer at pH 5.5 and 40° C. unless otherwise stated.
a. Xylanase activity was assayed by mixing a 0.2 ml aliquot of diluted enzyme with 0.4 ml buffer containing 1.0% (w/v) oat spelt xylan (Sigma Chemical Co., St. Louis, Mo.), preheated to 40° C. After 15 min at 40° C., the reaction was terminated by the addition of 1.2 ml of 3,5-dinitrosalicylic acid (DNS) (Miller, 1959), followed by 0.2 ml of 2.5N NaOH to dissolve the residual water-insoluble xylan. The reaction tube was then placed in boiling water for 5 min before determining the absorbance at 550 nm (A550 nm). Xylose was used as the standard.
The effects of various metal ions and reagents on xylanase activity were determined in 50 mM piperazine-HCl, pH 5.5. The enzyme and metal ions or reagents (1 and 3 mM) were preincubated at 22° C. for 10 min; residual activities were measured at 40° C.

[1] = reagent 1 mM, preincubated 22° C. 10 min, residual activity at 40° C., 50 mM piperazine-HCl pH 5.5, control without reagent = 100%
[2] = reagent 3 mM, preincubated 22° C. 10 min, residual activity at 40° C., 50 mM piperazine-HCl pH 5.5, control without reagent = 100%
[3] = reagent 1 and 3 mM, 50 mM piperazine-HCl pH 5.5

Row | Relative activity (%) [1] [%] | Relative activity (%) [2] [%] | Structure (SMILES) | Effect on xylanase activity (in words) (reagent 1 mM) | Effect on xylanase activity (in words) [3] | Effect on xylanase activity (in words) (pH 5.5) | Relative activity (%) (pH 5.5)
1 | 0 | 0 | O=C1CCC(=O)N1Br [N-Bromosuccinimide] | total inactivation; also recorded: completely inhibited |  |  | 
2 | 85.5 | 63.3 | O=[N+]([O-])c1ccc(O)c(CBr)c1 [2-Hydroxy-5-nitroxyl-5-nitrobenzyl-bromide] |  | inhibitory |  | 
3 |  |  | O=C(O)CN(CCN(CC(=O)O)CC(=O)O)CC(=O)O [EDTA] |  |  | do not significantly effect xylanase activity | 96.3% and 93.7%
4 | 96.7 | 95.4 | OCCS [β-Mercaptoethanol] |  | do not significantly effect xylanase activity |  | 

Row | Structure (SMILES) | Relative activity (%) [1] [%] | Relative activity (%) [2] [%] | Effect on xylanase activity (in words) (reagent 1 mM) | Effect on xylanase activity (in words) [3] | Effect on xylanase activity (in words) (pH 5.5) | Relative activity (%) (pH 5.5)
5 | O=C(O)c1cc[c]([Hg+])cc1.[OH-] [Hydroxymercuribenzoate, p-hydroxymercuribenzoate] | 0 | 0 | total inactivation |  |  | 
